Consider 6 compounds from patent US8664391B2, “Amide compounds as boosters of antivirals” (Janssen R&D Ireland Ltd, priority 2008, dated 2014).

For data set [1], the system named is wild-type HIV-1 IIIB strain. Nature of the data set: Antiviral activity in MT4 LTR-EGFP cellular assay. In kind it is cell-based. Conditions: read-out: Antiviral Activity IIIB pEC50 (converted).
Data set [2] addresses T1, CYP1A2 (Homo sapiens, UniProt P05177).
T1 construct: host or cells: E. coli
T1 sequence (P05177 1-516): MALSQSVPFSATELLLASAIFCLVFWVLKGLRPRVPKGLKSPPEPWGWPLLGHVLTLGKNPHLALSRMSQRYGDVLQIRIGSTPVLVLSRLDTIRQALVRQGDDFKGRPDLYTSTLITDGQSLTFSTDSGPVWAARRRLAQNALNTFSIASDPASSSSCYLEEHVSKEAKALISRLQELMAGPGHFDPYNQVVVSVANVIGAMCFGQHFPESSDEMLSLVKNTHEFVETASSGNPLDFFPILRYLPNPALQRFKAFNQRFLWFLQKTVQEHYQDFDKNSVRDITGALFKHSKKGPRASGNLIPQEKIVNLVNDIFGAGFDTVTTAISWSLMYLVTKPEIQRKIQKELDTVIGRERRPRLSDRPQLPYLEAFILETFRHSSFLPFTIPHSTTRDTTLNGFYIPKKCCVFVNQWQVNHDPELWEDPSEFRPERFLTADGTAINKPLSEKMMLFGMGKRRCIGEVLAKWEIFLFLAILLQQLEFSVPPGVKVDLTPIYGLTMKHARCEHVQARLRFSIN
Nature of the data set: CYP450 inhibition, fluorescent substrate assay, CYP1A2. Format: biochemical. As to conditions: substrate CEC 5 μM, read-out: 1A2-CEC % inh. The gist of the method:
(§1)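 Test compounds were preincubated for 5 min at 37° C with CYP P450 enzyme and an NADPH generating system before phosphate-buffered (pH 7.4) fluorogenic substrate was added. Reactions were stopped with acetonitrile and the fluorescent product was read on a plate reader. Inhibition appears as loss of fluorescent signal.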

In data set [3] the target is T2, CYP2D6 (Homo sapiens, UniProt P10635).
T2 construct: host or cells: E. coli
T2 sequence (P10635 whole entry): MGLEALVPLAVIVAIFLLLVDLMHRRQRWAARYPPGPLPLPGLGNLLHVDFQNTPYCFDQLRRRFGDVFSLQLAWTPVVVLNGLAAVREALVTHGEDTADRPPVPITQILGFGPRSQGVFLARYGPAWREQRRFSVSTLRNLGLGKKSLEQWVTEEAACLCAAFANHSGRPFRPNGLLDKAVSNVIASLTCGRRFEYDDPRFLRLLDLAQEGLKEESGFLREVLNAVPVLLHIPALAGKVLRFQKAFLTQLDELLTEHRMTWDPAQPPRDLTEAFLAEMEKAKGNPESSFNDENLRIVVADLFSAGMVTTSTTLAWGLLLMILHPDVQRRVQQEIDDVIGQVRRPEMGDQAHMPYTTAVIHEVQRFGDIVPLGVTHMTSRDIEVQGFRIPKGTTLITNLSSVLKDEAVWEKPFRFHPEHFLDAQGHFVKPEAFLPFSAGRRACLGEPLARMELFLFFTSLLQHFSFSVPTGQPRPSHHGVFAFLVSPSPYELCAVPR
As to the kind of experiment: CYP450 inhibition, fluorescent substrate assay, CYP2D6. In kind it is biochemical. Conditions: substrate AMMC 3 μM, read-out: 2D6-AMMC % inh. The gist of the method:
as §1

Data set [4] has as its target CYP2C9 (Homo sapiens, UniProt P11712). As to the kind of experiment: CYP450 inhibition, fluorescent substrate assay, CYP2C9. Format: biochemical. An outline of the steps:
as §1

The target of data set [5] is T3, CYP3A4 (Homo sapiens, UniProt P08684).
T3 construct: host or cells: E. coli
T3 sequence (P08684 whole entry): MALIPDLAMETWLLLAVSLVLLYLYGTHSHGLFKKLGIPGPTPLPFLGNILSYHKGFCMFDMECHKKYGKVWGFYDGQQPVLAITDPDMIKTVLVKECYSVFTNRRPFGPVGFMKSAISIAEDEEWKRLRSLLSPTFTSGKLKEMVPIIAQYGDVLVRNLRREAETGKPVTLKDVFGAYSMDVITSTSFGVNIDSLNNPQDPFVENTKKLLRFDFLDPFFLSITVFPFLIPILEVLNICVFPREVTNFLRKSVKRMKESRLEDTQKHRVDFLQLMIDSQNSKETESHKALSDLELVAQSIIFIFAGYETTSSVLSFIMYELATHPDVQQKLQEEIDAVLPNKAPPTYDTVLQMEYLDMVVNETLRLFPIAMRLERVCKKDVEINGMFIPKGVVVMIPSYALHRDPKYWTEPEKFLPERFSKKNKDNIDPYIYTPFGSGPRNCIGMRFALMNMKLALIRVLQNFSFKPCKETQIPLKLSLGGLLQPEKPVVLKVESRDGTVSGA
As to the kind of experiment: CYP450 inhibition, fluorescent substrate assay, CYP3A4. In kind it is biochemical. As to conditions: for inhibition at 10 min, 10 μM: substrate DBF 1 μM, read-out: 3A4-DBF % inh. An outline of the steps: as §1

The target in data set [6] is T4, CYP2C19 (Homo sapiens, UniProt P33261).
T4 construct: host or cells: E. coli
T4 sequence (P33261 whole entry): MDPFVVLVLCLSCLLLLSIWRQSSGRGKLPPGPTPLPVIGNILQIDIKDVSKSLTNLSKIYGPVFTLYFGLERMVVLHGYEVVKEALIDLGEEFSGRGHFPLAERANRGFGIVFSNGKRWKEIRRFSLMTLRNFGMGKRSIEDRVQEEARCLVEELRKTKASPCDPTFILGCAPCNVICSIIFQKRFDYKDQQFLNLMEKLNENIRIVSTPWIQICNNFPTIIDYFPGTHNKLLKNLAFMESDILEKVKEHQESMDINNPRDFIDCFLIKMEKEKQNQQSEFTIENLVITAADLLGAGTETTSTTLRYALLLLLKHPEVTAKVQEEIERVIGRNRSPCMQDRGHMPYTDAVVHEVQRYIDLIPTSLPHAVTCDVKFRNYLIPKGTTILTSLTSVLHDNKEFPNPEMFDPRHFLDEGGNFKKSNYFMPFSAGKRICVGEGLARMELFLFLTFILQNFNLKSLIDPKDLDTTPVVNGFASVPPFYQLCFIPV
Nature of the data set: CYP450 inhibition, fluorescent substrate assay, CYP2C19. Format: biochemical. As to conditions: substrate CEC 25 μM, read-out: 2C19-CEC % inh. The gist of the method:
as §1

The nature of data set [7]: in vitro. Format: in vitro ADME, human. Conditions: pH 7.4.
The nature of data set [8]: Cytotoxicity in mock-infected MT4 CMV-EGFP cells. In kind it is cell-based. As to conditions: human, pCC50 = -log10(CC50), read-out: Toxicity MT4 pCC50 (converted).
The mark [9] stands for this setting: Human immunodeficiency virus 1, 72 h, wild-type HIV-1 IIIB, MT4 LTR-EGFP cells, three days after infection, pEC50 = -log10(EC50).
[10] abbreviates: E. coli expressed CYP1A2, pH 7.4, probe CEC (5 μM), 10 μM test compound.
Setting [11] is: E. coli expressed CYP2D6, pH 7.4, probe AMMC (3 μM), 10 μM test compound.
Setting [12] is: E. coli expressed CYP3A4, pH 7.4, probe BFC (150 μM), 10 μM test compound, substrate BFC 150 μM, read-out: 3A4-BFC % inh.
Where [13] appears, read: E. coli expressed CYP3A4, pH 7.4, probe BQ (60 μM), 10 μM test compound, substrate BQ 60 μM, read-out: 3A4-BQ % inh.
Where [14] appears, read: E. coli expressed CYP3A4, pH 7.4, probe DBF (1 μM), 10 μM test compound.
The mark [15] stands for this setting: E. coli expressed CYP2C19, pH 7.4, probe CEC (25 μM), 10 μM test compound.

Where two headings read alike, the source gives them in different places. Some results are limits rather than exact numbers.

Sequence of CYP2C9 (P11712 whole entry): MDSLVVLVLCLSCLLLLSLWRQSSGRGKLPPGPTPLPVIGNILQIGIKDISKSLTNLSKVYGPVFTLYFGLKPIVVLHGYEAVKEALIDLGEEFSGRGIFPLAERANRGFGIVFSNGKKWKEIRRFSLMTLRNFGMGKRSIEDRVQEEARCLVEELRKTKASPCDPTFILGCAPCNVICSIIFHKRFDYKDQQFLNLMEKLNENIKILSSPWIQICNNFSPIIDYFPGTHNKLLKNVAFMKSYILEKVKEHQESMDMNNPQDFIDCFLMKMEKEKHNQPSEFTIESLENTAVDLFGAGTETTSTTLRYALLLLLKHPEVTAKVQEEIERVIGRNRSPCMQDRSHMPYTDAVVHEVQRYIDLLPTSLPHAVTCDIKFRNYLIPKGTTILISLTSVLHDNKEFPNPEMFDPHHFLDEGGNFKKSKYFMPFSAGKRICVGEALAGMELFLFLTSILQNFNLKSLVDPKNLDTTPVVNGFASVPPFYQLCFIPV

On to `CC(C)CN(C[C@@H](O)[C@H](Cc1ccccc1)NC(=O)OCc1cncs1)C(=O)c1ccco1` [Compound C21], for which the EC50 in data set [1] (Human immunodeficiency virus 1, IIIB, 72 h) is > 100 µM. In addition, the inhibition at 15 min, 10 μM in data set [2] (pH 7.4, 10 μM test compound) came to 43%. The inhibition at 45 min, 10 μM in data set [3] (pH 7.4, 10 μM test compound) was 62%. Moreover, the inhibition at 30 min, 10 μM turned out to be 95% in data set [4] (pH 7.4, 10 μM test compound, substrate MFC 200 μM, 30 min, read-out: 2C9-MFC % inh.); 87% in data set [5] (pH 7.4, 10 μM test compound, substrate BFC 150 μM, read-out: 3A4-BFC % inh.); 81% in data set [5] (pH 7.4, 10 μM test compound, substrate BQ 60 μM, read-out: 3A4-BQ % inh.); 75% in data set [6] (pH 7.4, 10 μM test compound). In addition, the inhibition at 10 min, 10 μM in data set [5] (pH 7.4, 10 μM test compound) was found to be 95%. For the same compound, the recovery at 15 min, 5 μM in data set [7] (human liver microsomes 1 mg/ml, 5 μM test compound, 15 min, 37° C., read-out: % recovery HLM15) came out at 62%. In addition, in data set [8], the CC50 at 3 days is > 100 µM.
Regarding `CC(C)(C)CN(C[C@@H](O)[C@H](Cc1ccccc1)NC(=O)OCc1cncs1)C(=O)c1ccncc1` [Compound C22], the EC50 in data set [1] (setting [9]) is > 100 µM. Further, in data set [2] (setting [10]), the inhibition at 15 min, 10 μM was found to be 0%. Also, the inhibition at 45 min, 10 μM in data set [3] (setting [11]) came to 62%. Moreover, the inhibition at 30 min, 10 μM was 69% in data set [4] (pH 7.4), 93% in data set [5] (setting [12]), 74% in data set [5] (setting [13]) and 60% in data set [6] (setting [15]). In data set [5] (setting [14]), the inhibition at 10 min, 10 μM turned out to be 89%. This compound also had a recovery at 15 min, 5 μM in data set [7] (human) of 77%. Also, the CC50 at 3 days in data set [8] is > 100 µM.
With `CC(C)CN(C[C@@H](O)[C@H](Cc1ccccc1)NC(=O)OCc1cncs1)C(=O)C1CCC(F)(F)CC1` [Compound C23], in data set [1] (setting [9]), the EC50 is 51.3 µM. Further, in data set [2] (setting [10]), the inhibition at 15 min, 10 μM is 22%. Also, the inhibition at 45 min, 10 μM in data set [3] (setting [11]) stood at 65%. The inhibition at 30 min, 10 μM in data set [4] (pH 7.4) was determined as 89%; in data set [5] (setting [12]) it was 94%; in data set [5] (setting [13]), 73%; in data set [6] (setting [15]), 77%. Also, the inhibition at 10 min, 10 μM in data set [5] (setting [14]) was 92%. In data set [7] (human), this compound showed a recovery at 15 min, 5 μM of 72%. Further, in data set [8], the CC50 at 3 days is 55 µM.
With `CC(C)CN(C[C@@H](O)[C@H](Cc1ccccc1)NC(=O)OCc1cncs1)C(=O)CCc1cncs1` [Compound C24], in data set [1] (setting [9]), the EC50 was 97.7 µM. In data set [2] (setting [10]), the inhibition at 15 min, 10 μM was 13%. Further, in data set [3] (setting [11]), the inhibition at 45 min, 10 μM amounted to 96%. Also, the inhibition at 30 min, 10 μM in data set [4] (pH 7.4) was 92%; in data set [5] (setting [12]), 101%; in data set [5] (setting [13]), 82%; in data set [6] (setting [15]), 86%. In data set [5] (setting [14]), the inhibition at 10 min, 10 μM worked out at 89%. Moreover, the recovery at 15 min, 5 μM in data set [7] (human) is 56%. In data set [8], the CC50 at 3 days is > 100 µM.
For the compound `CC(C)CN(C[C@@H](O)[C@H](Cc1ccccc1)NC(=O)OCc1cncs1)C(=O)OCc1cncs1` [Compound C25], the EC50 in data set [1] (setting [9]) was 69.2 µM. The inhibition at 15 min, 10 μM in data set [2] (setting [10]) is 25%. The inhibition at 45 min, 10 μM in data set [3] (setting [11]) stood at 91%. The inhibition at 30 min, 10 μM is 95% in data set [4] (pH 7.4), 100% in data set [5] (setting [12]), 79% in data set [5] (setting [13]) and 97% in data set [6] (setting [15]). In data set [5] (setting [14]), the inhibition at 10 min, 10 μM was determined as 89%. The same compound displayed a recovery at 15 min, 5 μM in data set [7] (human) of 63%. Besides, in data set [8], the CC50 at 3 days is 77.6 µM.
Consider `O=C(N[C@@H](Cc1ccccc1)[C@H](O)CN(CC1CCCCC1)C(=O)c1ccncc1)OCc1cncs1` [Compound C27], for which the EC50 in data set [1] (setting [9]) was 74.1 µM. Besides, the inhibition at 15 min, 10 μM in data set [2] (setting [10]) was 10%. Besides, the inhibition at 45 min, 10 μM in data set [3] (setting [11]) worked out at 86%. Also, the inhibition at 30 min, 10 μM was found to be 84% in data set [4] (pH 7.4), 101% in data set [5] (setting [12]), 81% in data set [5] (setting [13]) and 96% in data set [6] (setting [15]). Moreover, in data set [5] (setting [14]), the inhibition at 10 min, 10 μM was found to be 90%. In data set [7] (human), this compound showed a recovery at 15 min, 5 μM of 98%. Moreover, the CC50 at 3 days in data set [8] is 83.2 µM.
